# Assay results as given in article PMC5657151 (Pediatric blood & cancer, 2017).
# Entries after “also recorded” stand apart in the source; their conditions may differ. Where two headings read alike, the source gives them in different places.
# Legend:
# [1] = parameters: species or system human; details: in vivo
# [2] = format: in vivo, human; details: for AUC(0-t) / Cmax: median (range)
# [3] = system: relapsed or refractory solid tumors; test: Pediatric phase 1 trial: tumor response; format: in vivo, human
# [4] = adults, PO bid, ref [6], [60]–[62], cited from earlier work
smiles,measurement,setting,value
O=C1NC(=O)[C@@H](c2cn3c4c(cccc24)CCC3)[C@@H]1c1c[nH]c2ccccc12 [Tivantinib],"Anemia, maximum Gr. 1 (number of patients)",[1]; human,4
same,Grade 1 or 2 anemia (number),[1]; human,12
same,Grade 1 or 2 fatigue (number),[1]; human,8
same,Grade 1 or 2 hypoalbuminemia (number),[1]; human,4
same,Grade 1 or 2 leukopenia (number),[1]; human,5
same,Grade 1 or 2 lymphopenia (number),[1]; human,8
same,Grade 1 or 2 nausea (number),[1]; human,5
same,Grade 1 or 2 neutropenia (number),[1]; human,5
same,Grade 1 or 2 thrombocytopenia (number),[1]; human,3
same,Grade 1 or 2 vomiting (number),[1]; human,5
same,"Hemoglobin increased, maximum Gr. 1 (number of patients)",[1]; human,1
same,"Lymphocyte count decreased, maximum Gr. 1 (number of patients)",[1]; human,2
same,"Lymphocyte count decreased, maximum Gr. 2 (number of patients)",[1]; human,2
same,"Lymphocyte count increased, maximum Gr. 2 (number of patients)",[1]; human,1
same,"Neutrophil count decreased, maximum Gr. 2 (number of patients)",[1]; human,2
same,"Platelet count decreased, maximum Gr. 1 (number of patients)",[1]; human,2
same,"White blood cell decreased, maximum Gr. 1 (number of patients)",[1]; human,3
same,grade 3 anemia (number),[1]; human,1
same,grade 3 lymphopenia (number),[1]; human,2
same,recommended phase 2 dose (RP2D),[1]; human,240 mg/m^2/dose
same,"Anemia, maximum Gr. 1 (number of patients)","[1]; human, 1 cycle",9
same,"Anemia, maximum Gr. 2 (number of patients)","[1]; human, 1 cycle",3
same,"Anemia, maximum Gr. 3 (number of patients)","[1]; human, 1 cycle",1
same,"Fatigue, maximum Gr. 1 (number of patients)","[1]; human, 1 cycle",5
same,"Fatigue, maximum Gr. 2 (number of patients)","[1]; human, 1 cycle",3
same,"Hypoalbuminemia, maximum Gr. 1 (number of patients)","[1]; human, 1 cycle",2
same,"Hypoalbuminemia, maximum Gr. 2 (number of patients)","[1]; human, 1 cycle",2
same,"Lymphocyte count decreased, maximum Gr. 1 (number of patients)","[1]; human, 1 cycle",3
same,"Lymphocyte count decreased, maximum Gr. 2 (number of patients)","[1]; human, 1 cycle",5
same,"Lymphocyte count decreased, maximum Gr. 3 (number of patients)","[1]; human, 1 cycle",2
same,"Nausea, maximum Gr. 1 (number of patients)","[1]; human, 1 cycle",4
same,"Nausea, maximum Gr. 2 (number of patients)","[1]; human, 1 cycle",1
same,"Neutrophil count decreased, maximum Gr. 1 (number of patients)","[1]; human, 1 cycle",3
same,"Neutrophil count decreased, maximum Gr. 2 (number of patients)","[1]; human, 1 cycle",2
same,"Platelet count decreased, maximum Gr. 1 (number of patients)","[1]; human, 1 cycle",3
same,"Vomiting, maximum Gr. 1 (number of patients)","[1]; human, 1 cycle",4
same,"Vomiting, maximum Gr. 2 (number of patients)","[1]; human, 1 cycle",1
same,"White blood cell decreased, maximum Gr. 1 (number of patients)","[1]; human, 1 cycle",5
same,"White blood cell decreased, maximum Gr. 2 (number of patients)","[1]; human, 1 cycle",2
same,Sinus bradycardia,[1],not readily apparent
same,tolerability,[1],well tolerated
same,"Tmax, median (range)","[2]; Powder sprinkled on food, 240 mg/m^2 (n=9), Day 1 Cycle 1",2.0 (1.0–6.0) h
same,inter-patient variability in Cmax and AUC0–8h,[2]; across all dose levels,20 fold
same,AUC(0-t),"[2]; human, plasma, oral, 170 mg/m2, AUC0–8h, Capsule, 170 mg/m^2 (n=6), Day 1 Cycle 1, with food",3820 ng·h/mL
same,Tmax,"[2]; human, plasma, oral, 200 mg/m2",4 h
same,AUC(0-t),"[2]; human, plasma, oral, 200 mg/m2, AUC0–8h, Capsule, 200 mg/m^2 (n=7), Day 1 Cycle 1, with food",9470 ng·h/mL
same,Cmax,"[2]; human, plasma, oral, 200 mg/m2, Cmax, Capsule, 200 mg/m^2 (n=7), Day 1 Cycle 1, with food",2180 ng/mL
same,Tmax,"[2]; human, plasma, oral, 240 mg/m2",2 h
same,AUC(0-t),"[2]; human, plasma, oral, 240 mg/m2, AUC0–8h, Capsule, 240 mg/m^2 (n=13), Day 1 Cycle 1, with food",5630 ng·h/mL
same,AUC(0-t),"[2]; human, plasma, oral, 240 mg/m2, AUC0–8h, Powder sprinkled on food, 240 mg/m^2 (n=9), Day 1 Cycle 1",7300 ng·h/mL
same,Cmax,"[2]; human, plasma, oral, 240 mg/m2, Cmax, Capsule, 240 mg/m^2 (n=13), Day 1 Cycle 1, with food",1300 ng/mL
same,Cmax,"[2]; human, plasma, oral, 240 mg/m2, Cmax, Powder sprinkled on food, 240 mg/m^2 (n=9), Day 1 Cycle 1",1530 ng/mL
same,half-life,"[2]; human, plasma, oral, apparent elimination half-life, median, evaluable in 29 of 35 patients, range 1.2 – 18.0 hrs",2.7 h
same,Tmax,"[2]; human, plasma, po",~2 h
same,objective responses,"[3]; 32 patients evaluable for response, single agent",not observed; also recorded: no objective responses
same,duration of stable disease,"[3]; patient with neuroblastoma, 28-day cycles",8 cycles
same,maximum tolerated dose (MTD),[4]; amorphous form (approximately 170 mg/m^2/dose),300 mg
same,maximum tolerated dose (MTD),[4]; crystalline form (approximately 210 mg/m^2/dose),360 mg
